Patent US20240351985A1, “NOVEL COMPOUND AND USE OF SAID COMPOUND” (APHEA.BIO NV, priority 2021, published 2024)
In brackets after ≈: the same amount, converted by molar mass. Several values for one entry are separate records, joined by “and”; a condition that tells them apart may be missing. Equal values may be shown once. Read-outs that look alike come from different tables or passages of the source.

Experiments:
F. graminearum spores = format: cell-based, Fusarium graminearum; conditions: for Halo Diameter / Opacity Grade: 24 hours
Fusarium graminearum = experiment: microbe, parasite or virus in culture; format: cell-based; conditions: 22 h
Puccinia striiformis = experiment: Dose-response liquid-based assay against spores of Puccinia striiformis; format: cell-based; conditions: 48 h
Zymoseptoria tritici = experiment: microbe, parasite or virus in culture; format: cell-based; conditions: 120 h, incubation 5 d
[1] = tested on: Fusarium graminearum, Puccinia striiformis and Zymoseptoria tritici; experiment: organism not typed; format: cell-based
[2] = read-out: Absorbance (600 nm): AC50 value, Estimation
[3] = read-out: Absorbance (600 nm): AC50 value, Range
[4] = read-out: Fluorescence of resazurin dye (excitation 570 nm, emission 615 nm): AC50 value, Estimation
[5] = read-out: Fluorescence of resazurin dye (excitation 570 nm, emission 615 nm): AC50 value, Range

C=C/C(C)=C/[C@@H](C)C(=O)CC(CC(CC(N)=O)CC(=O)O)SC (stereo partly shown) [C17H27NO4S]
Halo Diameter (F. graminearum spores; 2 μL pipetted, 0.125 mg/mL): 4.4 mm and 4.7 mm and 4.3 mm | Opacity Grade (F. graminearum spores; 2 μL pipetted, 0.125 mg/mL): E (‘E’ means 0-20% inhibition of the pathogen) | Halo Diameter (F. graminearum spores; 2 μL pipetted, 0.250 mg/mL): 5.5 mm and 5.6 mm | Opacity Grade (F. graminearum spores; 2 μL pipetted, 0.250 mg/mL): D (‘D’ means 20-40% inhibition of the pathogen) | Halo Diameter (F. graminearum spores; 2 μL pipetted, 0.500 mg/mL): 6.7 mm and 7.2 mm and 7.1 mm | Opacity Grade (F. graminearum spores; 2 μL pipetted, 0.500 mg/mL): B (‘B’ means 60-80% inhibition of the pathogen) | Halo Diameter (F. graminearum spores; 2 μL pipetted, 1 mg/mL): 8.3 mm and 8.2 mm | Opacity Grade (F. graminearum spores; 2 μL pipetted, 1 mg/mL): A (‘A’ means 80-100% inhibition of the pathogen) | Halo Diameter (F. graminearum spores; 2 μL pipetted, 2 mg/mL): 9.1 mm and 9.3 mm | Opacity Grade (F. graminearum spores; 2 μL pipetted, 2 mg/mL): A (‘A’ means 80-100% inhibition of the pathogen) | Halo Diameter (F. graminearum spores; 2 μL pipetted, 4 mg/mL): 9.5 mm and 9.2 mm and 9.6 mm | Opacity Grade (F. graminearum spores; 2 μL pipetted, 4 mg/mL): A (‘A’ means 80-100% inhibition of the pathogen) | Halo Diameter (F. graminearum spores; 2 μL pipetted, 8 mg/mL): 9.8 mm and 9.2 mm and 9.7 mm | Opacity Grade (F. graminearum spores; 2 μL pipetted, 8 mg/mL): A (‘A’ means 80-100% inhibition of the pathogen) | Activity against F. graminearum spores (F. graminearum spores; all concentrations tested (8 mg/mL to 125 μg/mL)): active | AC50 (Fusarium graminearum; [2]): 8.9 µg/mL (≈ 26.1 µM) | AC50 (Fusarium graminearum; [3]): 7.54 to 10.5 µg/mL (≈ 22.1 to 30.7 µM) | AC50 (Fusarium graminearum; [4]): 13.2 µg/mL (≈ 38.8 µM) | AC50 (Fusarium graminearum; [5]): 11.8 to 14.8 µg/mL (≈ 34.6 to 43.5 µM) | AC50 (Puccinia striiformis; [4]): 12.8 µg/mL (≈ 37.5 µM) | AC50 (Puccinia striiformis; [5]): 11.7 to 14 µg/mL (≈ 34.1 to 41.1 µM) | AC50 (Zymoseptoria tritici; [2]): 16 µg/mL (≈ 46.9 µM) | AC50 (Zymoseptoria tritici; [3]): 14.9 to 17.2 µg/mL (≈ 43.7 to 50.4 µM) | AC50 (Zymoseptoria tritici; [4]): 15.9 µg/mL (≈ 46.6 µM) | AC50 (Zymoseptoria tritici; [5]): 14.8 to 17.1 µg/mL (≈ 43.3 to 50 µM) | AC50 ([1]; read-out: Active concentrations (AC50 ranges) for hyphal growth in the wells): 7.54 to 17.2 µg/mL (≈ 22.1 to 50.4 µM) | AC50 ([1]; read-out: Active concentrations (AC50 ranges) for metabolic activity): 11.7 to 17.1 µg/mL (≈ 34.1 to 50 µM)

C[C@@H]1[C@H](O)[C@@H](C)/C=C/C=C/C=C/C=C/C=C/C=C/C=C/[C@H](O[C@@H]2O[C@H](C)[C@@H](O)[C@H](N)[C@@H]2O)C[C@@H]2O[C@](O)(C[C@@H](O)C[C@@H](O)[C@H](O)CC[C@@H](O)C[C@@H](O)CC(=O)O[C@H]1C)C[C@H](O)[C@H]2C(=O)O [Amphotericin B, reference compound]
Halo Diameter (F. graminearum spores; 10 μL pipetted, 0.125 mg/mL): 9.3 mm | Opacity Grade (F. graminearum spores; 10 μL pipetted, 0.125 mg/mL): B (‘B’ means 60-80% inhibition of the pathogen) | Halo Diameter (F. graminearum spores; 10 μL pipetted, 0.15625 mg/mL): 7.1 mm | Opacity Grade (F. graminearum spores; 10 μL pipetted, 0.15625 mg/mL): C (‘C’ means 40-60% inhibition of the pathogen) | Halo Diameter (F. graminearum spores; 10 μL pipetted, 0.250 mg/mL): 9.2 mm and 9 mm and 9.3 mm and 8.7 mm | Opacity Grade (F. graminearum spores; 10 μL pipetted, 0.250 mg/mL): A (‘A’ means 80-100% inhibition of the pathogen) | Halo Diameter (F. graminearum spores; 10 μL pipetted, 0.3125 mg/mL): 7.7 mm | Opacity Grade (F. graminearum spores; 10 μL pipetted, 0.3125 mg/mL): C (‘C’ means 40-60% inhibition of the pathogen) | Halo Diameter (F. graminearum spores; 10 μL pipetted, 0.625 mg/mL): 9.1 mm | Opacity Grade (F. graminearum spores; 10 μL pipetted, 0.625 mg/mL): B (‘B’ means 60-80% inhibition of the pathogen)
